Test results: ChEMBL document CHEMBL1132763, “8-Aminocyclazocine analogues: synthesis and structure-activity relationships” (Bioorg Med Chem Lett, 2000)

Key:
[1] = target: Kappa-type opioid receptor (Cavia porcellus, UniProt P41144); experiment: Binding affinity was determined against Opioid receptor kappa 1 obtained from guinea pig brain membranes using [3H]U-69593 as radioligand
Mu-type opioid receptor = Mu-type opioid receptor (Cavia porcellus, UniProt P97266); experiment: Binding affinity was determined against Opioid receptor mu 1 obtained from guinea pig brain membranes using [3H]DAMGO as radioligand
[2] = Binding affinity was determined against Opioid receptor delta 1 obtained from guinea pig brain membranes using [3H]naltrindole as radioligand

Chain of Mu-type opioid receptor (P97266 whole entry): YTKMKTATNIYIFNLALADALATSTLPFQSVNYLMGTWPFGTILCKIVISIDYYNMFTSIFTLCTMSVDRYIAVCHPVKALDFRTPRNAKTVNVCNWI
Chain of Kappa-type opioid receptor (P41144 whole entry): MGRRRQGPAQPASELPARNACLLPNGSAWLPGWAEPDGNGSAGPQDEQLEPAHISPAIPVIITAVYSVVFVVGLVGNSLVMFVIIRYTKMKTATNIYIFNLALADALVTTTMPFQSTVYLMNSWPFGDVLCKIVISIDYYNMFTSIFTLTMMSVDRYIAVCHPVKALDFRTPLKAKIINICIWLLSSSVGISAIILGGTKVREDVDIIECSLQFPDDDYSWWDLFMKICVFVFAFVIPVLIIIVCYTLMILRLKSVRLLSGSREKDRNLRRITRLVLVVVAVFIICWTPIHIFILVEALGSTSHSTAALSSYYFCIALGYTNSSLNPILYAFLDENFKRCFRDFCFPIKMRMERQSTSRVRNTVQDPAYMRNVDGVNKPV

`C[C@H]1C2Cc3ccc(N(C)C)cc3[C@@]1(C)CCN2CC1CC1` (mixture of isomers) gave a Ki [1] of 33 nM and a Ki (Mu-type opioid receptor) of 82 nM.

`C[C@H]1C2Cc3ccc(N4CCN(C)CC4)cc3[C@@]1(C)CCN2CC1CC1` (mixture of isomers) gave a Ki [1] of 8.8 nM and a Ki (Mu-type opioid receptor) of 21 nM.

For `C[C@H]1C2Cc3ccc(N4CCCC4)cc3[C@@]1(C)CCN2CC1CC1` (mixture of isomers), the Ki [1] was 410 nM.

Work on `C[C@@H]1[C@@H]2Cc3ccc(O)cc3[C@@]1(C)CN2CC1CC1` yielded a Ki [1] of 76 nM and a Ki (Mu-type opioid receptor) of 360 nM.

`C[C@H]1[C@H]2Cc3ccc(Nc4ccccc4)cc3[C@@]1(C)CCN2CC1CC1` (stereo in doubt; (+)-12) showed a Ki [1] of 27 nM and a Ki (Mu-type opioid receptor) of 46 nM.

`C[C@H]1C2Cc3ccc(N)cc3[C@@]1(C)CCN2CC1CC1` (stereo in doubt; (-)-5) showed a Ki [1] of 1.2 nM and a Ki (Mu-type opioid receptor) of 1.8 nM.

Compound `C[C@H]1[C@H]2Cc3ccc(Nc4ccccc4)cc3[C@@]1(C)CCN2CC1CC1` (racemic) has a Ki [1] of 0.83 nM and a Ki (Mu-type opioid receptor) of 1.3 nM.

In the case of `CCNc1ccc2c(c1)[C@@]1(C)CCN(CC3CC3)C(C2)[C@@H]1C` (mixture of isomers), the Ki [1] is reported as 3.3 nM and the Ki (Mu-type opioid receptor) is reported as 5.1 nM.

In the case of `C[C@H]1C2Cc3ccc(NCc4ccccc4)cc3[C@@]1(C)CCN2CC1CC1` (stereo in doubt; (-)-14), the Ki [1] is reported as 2.1 nM and the Ki (Mu-type opioid receptor) is reported as 0.67 nM.

`C[C@H]1C2Cc3ccc(N(C)Cc4ccccc4)cc3[C@@]1(C)CCN2CC1CC1` (mixture of isomers) showed a Ki [1] of 44 nM and a Ki (Mu-type opioid receptor) of 56 nM.

For `C[C@H]1[C@H]2Cc3ccc(Nc4ccccc4)cc3[C@@]1(C)CCN2CC1CC1` (stereo in doubt; (-)-11), the Ki [1] was 0.54 nM and the Ki (Mu-type opioid receptor) was 1.1 nM.

`C[C@H]1C2Cc3ccc(NCCc4ccccc4)cc3[C@@]1(C)CCN2CC1CC1` (mixture of isomers) gave a Ki [1] of 11 nM and a Ki (Mu-type opioid receptor) of 9 nM.

Work on `C[C@H]1C2Cc3ccc(N)cc3[C@@]1(C)CCN2CC1CC1` (stereo in doubt; (+)-6) yielded a Ki [1] of 506 nM and a Ki (Mu-type opioid receptor) of 780 nM.

Compound `C[C@H]1C2Cc3ccc(N4CCCCC4)cc3[C@@]1(C)CCN2CC1CC1` (mixture of isomers) has a Ki [1] of 300 nM and a Ki (Mu-type opioid receptor) of 950 nM.

`C[C@H]1[C@H]2Cc3ccc(O)cc3[C@@]1(C)CCN2CC1CC1` (racemic) gave a Ki [1] of 0.18 nM.

With `CNc1ccc2c(c1)[C@@]1(C)CCN(CC3CC3)C(C2)[C@@H]1C` (mixture of isomers) the Ki [1] was 8.5 nM.

`C[C@H]1C2Cc3ccc(NCc4ccccc4)cc3[C@@]1(C)CCN2CC1CC1` (mixture of isomers) showed a Ki [1] of 4.7 nM and a Ki (Mu-type opioid receptor) of 1.5 nM.

For `C[C@H]1C2Cc3ccc(N4CCOCC4)cc3[C@@]1(C)CCN2CC1CC1` (mixture of isomers), the Ki [1] was 560 nM and the Ki (Mu-type opioid receptor) was 650 nM.

Work on `C[C@H]1C2Cc3ccc(N)cc3[C@@]1(C)CCN2CC1CC1` (mixture of isomers) yielded a Ki [1] of 4.1 nM and a Ki (Mu-type opioid receptor) of 9.5 nM.

In the case of `CC(C)Nc1ccc2c(c1)[C@@]1(C)CCN(CC3CC3)C(C2)[C@@H]1C` (mixture of isomers), the Ki [1] is reported as 78 nM and the Ki (Mu-type opioid receptor) is reported as 240 nM.

Work on `C[C@H]1[C@H]2Cc3ccc(O)cc3[C@]1(C)CCN2CC1CC1` [CYCLAZOCINE] yielded a Ki [2] of 0.58 nM.
